The record followed here is patent US6414001B2, “Ether and amide compounds preparation thereof composition containing same and use thereof as antidiadetics” (Kotobuki Pharmaceutical Co. Ltd., priority 2000, dated 2002).

One data set relates to db/db mice. As to the kind of experiment: Hypoglycemic activity in mice. It counts as in vivo. Conditions: for inhibition in vivo at 30 mg/kg: 30 mg/kg once a day for four consecutive days; for inhibition in vivo at 3 mg/kg: 3 mg/kg once a day for four consecutive days. On the procedure:
Hypoglycemic Activity in Mice
Test compounds were suspended in 0.5% Methyl cellulose solution and administered (p.o.) to db/db mice (obtained from Nihon Clea) at a range of 3-30 mg/kg once a day for four consecutive days. Troglitazone (300 mg/kg) was also administrated for control.

Setting [1] is: Mus musculus, po, 10 mg/kg once a day for four consecutive days, suspended in 0.5% methyl cellulose.
Setting [2] is: Mus musculus, po, suspended in 0.5% methyl cellulose.

The term melting point denotes the temperature of the solid-liquid transition. For orientation: inhibition in vivo means the percentage by which the read-out fell short of the control.

Consider “4-[2-(5-Methyl-2-phenyl-1,3-oxazole-4-yl)ethoxy]benzene trifluoromethyl sulfonamide [Compound 2]”, for which the “Hypoglycemic activity (%)” value with db/db mice (p.o., 10 mg/kg once a day for four consecutive days, suspended in 0.5% methyl cellulose) was found to be 49.0%.
`Cc1oc(-c2ccccc2)nc1CCOc1ccc(NC(=O)C(=O)O)cc1` [Compound 8, 2-[4-(2-(5-Methyl-2-phenyl-1,3-oxazole-4-yl)ethoxy)phenyl]amino-2-oxo-acetic acid] returned a melting point of 196 to 198 °C. Also, 10 mg/kg produced 26% inhibition in vivo in the data set on db/db mice (setting [1]).
`Cc1oc(-c2ccccc2)nc1CCOc1ccc(CNS(=O)(=O)C(F)(F)F)cc1` [Compound 9, 2-[4-(2-(5-Methyl-2-phenyl-1,3-oxazole-4-yl)ethoxy)benzyl]trifluoromethylsulfonamide] displayed a melting point of 113 to 115 °C. In addition, the inhibition in vivo at 10 mg/kg with db/db mice (setting [1]) came out at 24%.
The compound `CCc1ccc(CCOc2ccc(NS(=O)(=O)C(F)(F)F)cc2)nc1` [Compound 10, 4-[2-(5-Ethylpyridine-2-yl)ethoxy]benzene trifluoromethylsulfonamide] returned a melting point of 76 to 78 °C. The compound further registered an inhibition in vivo at 10 mg/kg with db/db mice (setting [1]) of 32.4%.
In the data set on db/db mice (setting [1]), `CN(CCOc1ccc(NS(=O)(=O)C(F)(F)F)cc1)c1ccccn1` [Compound 11, 4-[2-(N-Methyl-N-2-pyridyl)aminoethoxy]benzene trifluoromethanesulfonamide] showed an inhibition in vivo at 10 mg/kg of 15.4%.
The same measure, in the same setting: the figure for `COc1ccc(-c2nc(CCOc3ccc(NS(=O)(=O)C(F)(F)F)cc3)c(C)o2)cc1` [Compound 18] is 34.7%.
With `Cc1oc(-c2cc(C(C)(C)C)c(O)c(C(C)(C)C)c2)nc1CCOc1ccc(NS(=O)(=O)C(F)(F)F)cc1` [Compound 19], at 10 mg/kg the inhibition in vivo in the data set on db/db mice (setting [1]) was 12.8%.
Compound `COC(=O)c1ccc(OCCc2nc(-c3ccccc3)oc2C)cc1O` [Compound 25, 2-Hydroxy-4-[2-(5-methyl-2-phenyl-1,3-oxazole-4-yl)ethoxy]benzoic acid methyl ester] returned a melting point of 133 to 134 °C.
Regarding `CCOc1cc(OCCc2nc(-c3ccccc3)oc2C)ccc1C(=O)O` [Compound 31, 2-Ethoxy-4-[2-(5-methyl-2-phenyl-1,3-oxazole-4-yl)ethoxy]benzoic acid], 30 mg/kg produced 19% inhibition in vivo with db/db mice (setting [2]).
`CCOc1cc(OCCc2nc(-c3ccccc3)oc2C)ccc1NS(=O)(=O)C(F)(F)F` [Compound 40] gave a melting point of 133 to 135 °C. Further, in the data set on db/db mice (setting [2]), the inhibition in vivo at 30 mg/kg turned out to be 53.4%.
Take `Cc1oc(-c2ccccc2)nc1CCOc1ccc(NS(=O)(=O)C(F)(F)F)c(O)c1` [Compound 42]: the inhibition in vivo at 10 mg/kg in the data set on db/db mice (setting [1]) turned out to be 29.6%.
In turn, `Cc1oc(-c2ccccc2)nc1CC(=O)Nc1ccc(NS(=O)(=O)C(F)(F)F)cc1` [Compound 48] gave a melting point of 147 to 149 °C. In the data set on db/db mice (setting [2]), this compound returned an inhibition in vivo at 30 mg/kg of 65.4%.
The compound `Cc1oc(-c2ccccc2)nc1CC(=O)Nc1ccc(C(=O)O)c(O)c1` [Compound 52] returned an inhibition in vivo at 30 mg/kg with db/db mice (setting [2]) of 10.5%.
In the case of `Cc1oc(-c2ccc(Cl)cc2)nc1CCOc1ccc(NS(=O)(=O)C(F)(F)F)cc1` [Compound 58], 3 mg/kg produced 43.4% inhibition in vivo with db/db mice (setting [2]).
On the same count and under the same terms, the figure for `Cc1oc(-c2ccc(F)cc2)nc1CCOc1ccc(NS(=O)(=O)C(F)(F)F)cc1` [Compound 59] is 18.4%.
For `Cc1oc(-c2ccc(OCC(=O)O)cc2)nc1CCOc1ccc(NS(=O)(=O)C(F)(F)F)cc1` [Compound 67], the melting point lay in the range of 167 to 168 °C. For the same compound, 3 mg/kg produced 33.1% inhibition in vivo in the data set with db/db mice (setting [2]).
In turn, `Cc1oc(-c2cc(C(C)(C)C)c(OCC(=O)O)c(C(C)(C)C)c2)nc1CCOc1ccc(NS(=O)(=O)C(F)(F)F)cc1` [Compound 68] displayed an inhibition in vivo at 3 mg/kg with db/db mice (setting [2]) of 21.2%.
Regarding `Cc1oc(-c2ccc(O)c(C(C)(C)C)c2)nc1CCOc1ccc(NS(=O)(=O)C(F)(F)F)cc1` [Compound 70], the inhibition in vivo at 30 mg/kg in the data set on db/db mice (setting [2]) worked out at 51%.
Take `Cc1c(C)c2c(c(C)c1O)CCC(C)(COc1ccc(CC3SC(=O)NC3=O)cc1)O2` (stereo not shown) [Troglitazone, reference compound]: in the data set on db/db mice (Mus musculus, po, 300 mg/kg, control drug), 300 mg/kg produced 34% inhibition in vivo.
